Results reported in the supplement of paper PMC10307832.

How the values were obtained:
Assay in all cases: relative viability (nuclei count vs DMSO), 5 days (fraction); higher = more cells survive
Linsitinib + Alpelisib = compound: C[C@]1(O)C[C@@H](c2nc(-c3ccc4ccc(-c5ccccc5)nc4c3)c3c(N)nccn32)C1 [Linsitinib] + Cc1nc(NC(=O)N2CCC[C@H]2C(N)=O)sc1-c1ccnc(C(C)(C)C(F)(F)F)c1 [Alpelisib] (partner 2 µM)
Summary of the method: (§1)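 Relative viability equals treated-well nuclei counts divided by vehicle-well nuclei counts. Counts came from 4× images of lung cancer cell lines grown in 1536-well plates for 5 days after pin-tool dosing on the day after seeding. Dosing used one drug alone or a fixed anchor-drug dose plus five library-drug doses (not always all listed) in √10 steps, and values are medians of duplicate plates.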

Ispinesib + Pictilisib = compound: Cc1ccc(C(=O)N(CCCN)[C@@H](c2nc3cc(Cl)ccc3c(=O)n2Cc2ccccc2)C(C)C)cc1 [Ispinesib] + CS(=O)(=O)N1CCN(Cc2cc3nc(-c4cccc5[nH]ncc45)nc(N4CCOCC4)c3s2)CC1 [Pictilisib] (partner 1 µM)
Summary of the method: as §1

Linsitinib + Phenformin = compound: C[C@]1(O)C[C@@H](c2nc(-c3ccc4ccc(-c5ccccc5)nc4c3)c3c(N)nccn32)C1 [Linsitinib] + N=C(N)NC(=N)NCCc1ccccc1 [Phenformin] (partner 250 µM)
Summary of the method: as §1

Ispinesib + OSI-027 = compound: Cc1ccc(C(=O)N(CCCN)[C@@H](c2nc3cc(Cl)ccc3c(=O)n2Cc2ccccc2)C(C)C)cc1 [Ispinesib] + COc1cccc2cc(-c3nc([C@H]4CC[C@H](C(=O)O)CC4)n4ncnc(N)c34)[nH]c12 [OSI-027] (partner 0.5 µM)
Summary of the method: as §1

NCI-H1734
relative viability (Linsitinib + Alpelisib; first compound 0.01 µM): 0.688 | relative viability (Linsitinib + Alpelisib; first compound 0.03162 µM): 0.744 | relative viability (Linsitinib + Alpelisib; first compound 0.1 µM): 0.65 | relative viability (Linsitinib + Alpelisib; first compound 0.3162 µM): 0.692 | relative viability (Linsitinib + Alpelisib; first compound 1 µM): 0.612 | relative viability (Ispinesib + Pictilisib; first compound 0.001 µM): 0.414 | relative viability (Ispinesib + Pictilisib; first compound 0.003162 µM): 0.476 | relative viability (Ispinesib + Pictilisib; first compound 0.01 µM): 0.506 | relative viability (Ispinesib + Pictilisib; first compound 0.03162 µM): 0.34 | relative viability (Ispinesib + Pictilisib; first compound 0.1 µM): 0.233 | relative viability (Linsitinib + Phenformin; first compound 0.01 µM): 0.449 | relative viability (Linsitinib + Phenformin; first compound 0.03162 µM): 0.392 | relative viability (Linsitinib + Phenformin; first compound 0.1 µM): 0.367 | relative viability (Linsitinib + Phenformin; first compound 0.3162 µM): 0.363 | relative viability (Linsitinib + Phenformin; first compound 1 µM): 0.315 | relative viability (Ispinesib + OSI-027; first compound 0.001 µM): 0.609 | relative viability (Ispinesib + OSI-027; first compound 0.003162 µM): 0.585 | relative viability (Ispinesib + OSI-027; first compound 0.01 µM): 0.659 | relative viability (Ispinesib + OSI-027; first compound 0.03162 µM): 0.459 | relative viability (Ispinesib + OSI-027; first compound 0.1 µM): 0.177

HCC-15
relative viability (Linsitinib + Alpelisib; first compound 0.01 µM): 0.918 | relative viability (Linsitinib + Alpelisib; first compound 0.03162 µM): 0.887 | relative viability (Linsitinib + Alpelisib; first compound 0.1 µM): 0.952 | relative viability (Linsitinib + Alpelisib; first compound 0.3162 µM): 0.582 | relative viability (Linsitinib + Alpelisib; first compound 1 µM): 0.775 | relative viability (Ispinesib + Pictilisib; first compound 0.001 µM): 0.878 | relative viability (Ispinesib + Pictilisib; first compound 0.003162 µM): 0.864 | relative viability (Ispinesib + Pictilisib; first compound 0.01 µM): 0.812 | relative viability (Ispinesib + Pictilisib; first compound 0.03162 µM): 0.459 | relative viability (Ispinesib + Pictilisib; first compound 0.1 µM): 0.139 | relative viability (Linsitinib + Phenformin; first compound 0.01 µM): 0.512 | relative viability (Linsitinib + Phenformin; first compound 0.03162 µM): 0.46 | relative viability (Linsitinib + Phenformin; first compound 0.1 µM): 0.433 | relative viability (Linsitinib + Phenformin; first compound 1 µM): 0.292 | relative viability (Ispinesib + OSI-027; first compound 0.001 µM): 0.773 | relative viability (Ispinesib + OSI-027; first compound 0.003162 µM): 0.715 | relative viability (Ispinesib + OSI-027; first compound 0.01 µM): 0.771 | relative viability (Ispinesib + OSI-027; first compound 0.03162 µM): 0.203 | relative viability (Ispinesib + OSI-027; first compound 0.1 µM): 0.178

NCI-H2405
relative viability (Linsitinib + Alpelisib; first compound 0.01 µM): 0.86 | relative viability (Linsitinib + Alpelisib; first compound 0.03162 µM): 0.625 | relative viability (Linsitinib + Alpelisib; first compound 0.1 µM): 1.04 | relative viability (Linsitinib + Alpelisib; first compound 0.3162 µM): 0.632 | relative viability (Linsitinib + Alpelisib; first compound 1 µM): 0.698 | relative viability (Ispinesib + Pictilisib; first compound 0.001 µM): 0.543 | relative viability (Ispinesib + Pictilisib; first compound 0.003162 µM): 0.455 | relative viability (Ispinesib + Pictilisib; first compound 0.01 µM): 0.395 | relative viability (Ispinesib + Pictilisib; first compound 0.03162 µM): 0.317 | relative viability (Ispinesib + Pictilisib; first compound 0.1 µM): 0.201 | relative viability (Linsitinib + Phenformin; first compound 0.01 µM): 0.406 | relative viability (Linsitinib + Phenformin; first compound 0.03162 µM): 0.446 | relative viability (Linsitinib + Phenformin; first compound 0.1 µM): 0.384 | relative viability (Linsitinib + Phenformin; first compound 0.3162 µM): 0.377 | relative viability (Linsitinib + Phenformin; first compound 1 µM): 0.292 | relative viability (Ispinesib + OSI-027; first compound 0.001 µM): 0.655 | relative viability (Ispinesib + OSI-027; first compound 0.003162 µM): 0.657 | relative viability (Ispinesib + OSI-027; first compound 0.01 µM): 0.755 | relative viability (Ispinesib + OSI-027; first compound 0.03162 µM): 0.635 | relative viability (Ispinesib + OSI-027; first compound 0.1 µM): 0.389

NCI-H1993
relative viability (Linsitinib + Alpelisib; first compound 0.01 µM): 0.723 | relative viability (Linsitinib + Alpelisib; first compound 0.03162 µM): 0.568 | relative viability (Linsitinib + Alpelisib; first compound 0.1 µM): 0.701 | relative viability (Linsitinib + Alpelisib; first compound 0.3162 µM): 0.75 | relative viability (Linsitinib + Alpelisib; first compound 1 µM): 0.64 | relative viability (Ispinesib + Pictilisib; first compound 0.001 µM): 0.808 | relative viability (Ispinesib + Pictilisib; first compound 0.003162 µM): 0.828 | relative viability (Ispinesib + Pictilisib; first compound 0.01 µM): 0.806 | relative viability (Ispinesib + Pictilisib; first compound 0.03162 µM): 0.7 | relative viability (Ispinesib + Pictilisib; first compound 0.1 µM): 0.611 | relative viability (Linsitinib + Phenformin; first compound 0.01 µM): 0.523 | relative viability (Linsitinib + Phenformin; first compound 0.03162 µM): 0.465 | relative viability (Linsitinib + Phenformin; first compound 0.1 µM): 0.572 | relative viability (Linsitinib + Phenformin; first compound 0.3162 µM): 0.526 | relative viability (Linsitinib + Phenformin; first compound 1 µM): 0.526 | relative viability (Ispinesib + OSI-027; first compound 0.001 µM): 0.518 | relative viability (Ispinesib + OSI-027; first compound 0.003162 µM): 0.601 | relative viability (Ispinesib + OSI-027; first compound 0.01 µM): 0.565 | relative viability (Ispinesib + OSI-027; first compound 0.03162 µM): 0.514 | relative viability (Ispinesib + OSI-027; first compound 0.1 µM): 0.442

NCI-H460
relative viability (Linsitinib + Alpelisib; first compound 0.01 µM): 0.46 | relative viability (Linsitinib + Alpelisib; first compound 0.03162 µM): 0.325 | relative viability (Linsitinib + Alpelisib; first compound 0.1 µM): 0.475 | relative viability (Linsitinib + Alpelisib; first compound 0.3162 µM): 0.329 | relative viability (Linsitinib + Alpelisib; first compound 1 µM): 0.351 | relative viability (Ispinesib + Pictilisib; first compound 0.001 µM): 0.415 | relative viability (Ispinesib + Pictilisib; first compound 0.003162 µM): 0.425 | relative viability (Ispinesib + Pictilisib; first compound 0.01 µM): 0.449 | relative viability (Ispinesib + Pictilisib; first compound 0.03162 µM): 0.229 | relative viability (Ispinesib + Pictilisib; first compound 0.1 µM): 0.0764 | relative viability (Linsitinib + Phenformin; first compound 0.01 µM): 0.511 | relative viability (Linsitinib + Phenformin; first compound 0.03162 µM): 0.44 | relative viability (Linsitinib + Phenformin; first compound 0.1 µM): 0.521 | relative viability (Linsitinib + Phenformin; first compound 0.3162 µM): 0.394 | relative viability (Linsitinib + Phenformin; first compound 1 µM): 0.342 | relative viability (Ispinesib + OSI-027; first compound 0.001 µM): 0.787 | relative viability (Ispinesib + OSI-027; first compound 0.003162 µM): 0.835 | relative viability (Ispinesib + OSI-027; first compound 0.01 µM): 1.03 | relative viability (Ispinesib + OSI-027; first compound 0.03162 µM): 0.417 | relative viability (Ispinesib + OSI-027; first compound 0.1 µM): 0.0414

NCI-H1651
relative viability (Linsitinib + Alpelisib; first compound 0.01 µM): 1.03 | relative viability (Linsitinib + Alpelisib; first compound 0.03162 µM): 0.989 | relative viability (Linsitinib + Alpelisib; first compound 0.1 µM): 0.822 | relative viability (Linsitinib + Alpelisib; first compound 0.3162 µM): 0.738 | relative viability (Linsitinib + Alpelisib; first compound 1 µM): 0.957 | relative viability (Ispinesib + Pictilisib; first compound 0.001 µM): 0.623 | relative viability (Ispinesib + Pictilisib; first compound 0.003162 µM): 0.66 | relative viability (Ispinesib + Pictilisib; first compound 0.01 µM): 0.8 | relative viability (Ispinesib + Pictilisib; first compound 0.03162 µM): 0.491 | relative viability (Ispinesib + Pictilisib; first compound 0.1 µM): 0.18 | relative viability (Linsitinib + Phenformin; first compound 0.01 µM): 0.324 | relative viability (Linsitinib + Phenformin; first compound 0.03162 µM): 0.344 | relative viability (Linsitinib + Phenformin; first compound 0.1 µM): 0.304 | relative viability (Linsitinib + Phenformin; first compound 0.3162 µM): 0.272 | relative viability (Linsitinib + Phenformin; first compound 1 µM): 0.311 | relative viability (Ispinesib + OSI-027; first compound 0.001 µM): 0.837 | relative viability (Ispinesib + OSI-027; first compound 0.003162 µM): 0.696 | relative viability (Ispinesib + OSI-027; first compound 0.01 µM): 0.848 | relative viability (Ispinesib + OSI-027; first compound 0.03162 µM): 0.684 | relative viability (Ispinesib + OSI-027; first compound 0.1 µM): 0.137

NCI-H1975
relative viability (Linsitinib + Alpelisib; first compound 0.01 µM): 0.608 | relative viability (Linsitinib + Alpelisib; first compound 0.03162 µM): 0.62 | relative viability (Linsitinib + Alpelisib; first compound 0.1 µM): 0.647 | relative viability (Linsitinib + Alpelisib; first compound 0.3162 µM): 0.543 | relative viability (Linsitinib + Alpelisib; first compound 1 µM): 0.453 | relative viability (Ispinesib + Pictilisib; first compound 0.001 µM): 0.295 | relative viability (Ispinesib + Pictilisib; first compound 0.003162 µM): 0.276 | relative viability (Ispinesib + Pictilisib; first compound 0.01 µM): 0.272 | relative viability (Ispinesib + Pictilisib; first compound 0.03162 µM): 0.153 | relative viability (Ispinesib + Pictilisib; first compound 0.1 µM): 0.164 | relative viability (Linsitinib + Phenformin; first compound 0.01 µM): 0.396 | relative viability (Linsitinib + Phenformin; first compound 0.03162 µM): 0.417 | relative viability (Linsitinib + Phenformin; first compound 0.1 µM): 0.413 | relative viability (Linsitinib + Phenformin; first compound 0.3162 µM): 0.38 | relative viability (Linsitinib + Phenformin; first compound 1 µM): 0.396 | relative viability (Ispinesib + OSI-027; first compound 0.001 µM): 0.781 | relative viability (Ispinesib + OSI-027; first compound 0.003162 µM): 0.819 | relative viability (Ispinesib + OSI-027; first compound 0.01 µM): 0.991 | relative viability (Ispinesib + OSI-027; first compound 0.03162 µM): 0.258 | relative viability (Ispinesib + OSI-027; first compound 0.1 µM): 0.127
